Experiments:
DU-145 (Prostate) = assay: NCI-60 cytotoxicity assay; type: cell-based, human; conditions: Homo sapiens; DU-145 prostate; 48 h, sulforhodamine B; read-out: Comparative Cytotoxicity GI50, Prostate DU-145
Description: (§1) The antiproliferative activities of the indenoisquinoline compounds are determined in the NCI-60 cancer cell lines of the National Cancer Institute Developmental Therapeutics Program (NCI-DTP). […] Cancer cells are incubated with the test compounds at five concentrations ranging from 100 μM to 10 nM for 48 h. After the treated cancer cells are stained with sulforhodamine B dye, the percentage growth is plotted as a function of the common logarithm of the tested compound concentration. […] The approximate average of GI50 values across the entire panel of NCI-60 cancer cell lines for each compound is recorded as the MGM value.
(§2) NCI-60 Cytotoxicity Assay. Compounds were submitted to the National Cancer Institute Developmental Therapeutic Program to determine their growth-inhibitory potentials in NCI-60 cell lines. All compounds satisfied the pre-screening proceeded into the 5-dose cell viability assay, in which cells were treated for 48 h at 5 dosages ranging from 100 μM to 10 nM.

HCT-116 (Colon) = assay: NCI-60 cytotoxicity assay; type: cell-based, human; conditions: Homo sapiens; HCT-116 colon; 48 h, sulforhodamine B; read-out: Comparative Cytotoxicity GI50, Colon HCT-116
Description: as §1, §2

HOP-62 (Lung) = assay: NCI-60 cytotoxicity assay; type: cell-based, human; conditions: Homo sapiens; HOP-62 lung; 48 h, sulforhodamine B; read-out: Comparative Cytotoxicity GI50, Lung HOP-62
Description: as §1, §2

MCF7 (Breast) = assay: NCI-60 cytotoxicity assay; type: cell-based, human; conditions: Homo sapiens; MCF7 breast; 48 h, sulforhodamine B; read-out: Comparative Cytotoxicity GI50, Breast MCE7
Description: as §1, §2

OVCAR-3 (Ovarian) = assay: NCI-60 cytotoxicity assay; type: cell-based, human; conditions: Homo sapiens; OVCAR-3 ovarian; 48 h, sulforhodamine B; read-out: Comparative Cytotoxicity GI50, Ovarian OVCAR-3
Description: as §1, §2

SN12C (Renal) = assay: NCI-60 cytotoxicity assay; type: cell-based, human; conditions: Homo sapiens; SN12C renal; 48 h, sulforhodamine B; read-out: Comparative Cytotoxicity GI50, Renal SN12C
Description: as §1, §2

UACC-62 (Melanoma) = assay: NCI-60 cytotoxicity assay; type: cell-based, human; conditions: Homo sapiens; UACC-62 melanoma; 48 h, sulforhodamine B; read-out: Comparative Cytotoxicity GI50, Melanoma UACC-62
Description: as §1, §2

SF-539 (CNS) = assay: NCI-60 cytotoxicity assay; type: cell-based; conditions: Homo sapiens; SF-539 CNS; 48 h, sulforhodamine B; read-out: Comparative Cytotoxicity GI50, CNS SF-539
Description: as §1, §2

NCI-60 cancer cell lines = assay: NCI-60 cytotoxicity assay, MGM; type: cell-based; conditions: Homo sapiens; entire panel of NCI-60 cancer cell lines; read-out: MGM (approximate average of GI50 values across the NCI-60 panel)
Description: as §1, §2

[1] = Brain penetration and plasma/brain pharmacokinetics in combination with Temodar or Lynparza
Description: A similar analysis was performed with LMP744 and LMP400 in combination with Temodar and Lynparza.

Caco-2 cells = assay: Caco-2 permeability; type: in vitro ADME
Description: Caco-2 Permeability Studies. The Caco-2 plate was removed from the incubator and washed twice with pre-warmed HBSS (10 mM HEPES, pH 7.4), and then incubated at 37° C. for 30 min. The stock solutions of controls compounds were diluted in DMSO to get 1 mM solutions and then diluted with HBSS (10 mM HEPES, pH 7.4) to get 5 μM working solutions. The stock solutions of the test compounds were diluted in DMSO to get 1 mM solutions and then diluted with HBSS (10 mM HEPES, pH 7.4) to get 5 μM working solutions. The final concentration of DMSO in the incubation system was 0.5%. To determine the rate of drug transport in the apical to basolateral direction, 75 μL of 5 μM working solutions of test compounds was added to the Transwell insert (apical compartment) and the wells in the receiver plate (basolateral compartment) were filled with 235 μL of HBSS (10 mM HEPES, pH 7.4). To determine the rate of drug transport in the basolateral to apical direction, 235 μL of 5 μM working solutions of test compounds were to the receiver plate wells (basolateral compartment) and then the Transwell inserts (apical compartment) were filled with 75 μL of HBSS (10 mM HEPES, pH 7.4). Time 0 samples were prepared by transferring 50 μL of 5 μM working solution to wells of the 96-deepwell plate, followed by the addition of 200 μL cold methanol containing appropriate internal standards (IS). The plates were incubated at 37° C. for 2 h. […] An aliquot of 100 μL of the supernatant was mixed with an appropriate volume of ultra-pure water before LC-MS/MS analysis. To determine the Lucifer Yellow leakage after 2 h transport period, stock solution of Lucifer yellow was prepared in ultra-pure water and diluted with HBSS (10 mM HEPES, pH 7.4) to reach the final concentration of 100 μM and then 100 μL of the Lucifer yellow solution was added to each Transwell insert (apical compartment), followed by filling the wells in the receiver plate (basolateral compartment) with 300 μL of HBSS (10 mM HEPES, pH 7.4). The plates were incubated at 37° C. for 30 minutes. Samples (80 μL) were removed directly from the apical and basolateral wells (using the basolateral access holes) and transferred to wells of new 96 wells plates.

[2] = Temador 125 mg/kg PO + LMP400 10 mg/kg IV, 1 h
[3] = Temador 125 mg/kg PO + LMP400 10 mg/kg IV, 2 h
[4] = Temador 125 mg/kg PO + LMP400 10 mg/kg IV, 4 h
[5] = Temador 125 mg/kg PO + LMP400 10 mg/kg IV, 8 h
[6] = Temador 125 mg/kg PO + LMP400 10 mg/kg IV, 24 h
[7] = Temador 125 mg/kg PO + LMP744 20 mg/kg IV, 0.25 h
[8] = Temador 125 mg/kg PO + LMP744 20 mg/kg IV, 0.5 h
[9] = Temador 125 mg/kg PO + LMP744 20 mg/kg IV, 1 h
[10] = Temador 125 mg/kg PO + LMP744 20 mg/kg IV, 2 h
[11] = Temador 125 mg/kg PO + LMP744 20 mg/kg IV, 4 h
[12] = Temador 125 mg/kg PO + LMP744 20 mg/kg IV, 8 h
[13] = Temador 125 mg/kg PO + LMP744 20 mg/kg IV, 24 h

In the case of `COc1cc2c3c(n(CCCN4CCCC4)c(=O)c2cc1OC)-c1cc2c(cc1C3=O)OCO2` [A4], the GI50 (DU-145 (Prostate)) is reported as 1.31 µM, the GI50 (HCT-116 (Colon)) is reported as 1.14 µM and the GI50 (HOP-62 (Lung)) is reported as 0.8 µM. It also gave a GI50 (MCF7 (Breast)) of 0.38 µM, a GI50 (OVCAR-3 (Ovarian)) of 1.5 µM and a GI50 (SN12C (Renal)) of 1.64 µM. It also gave a GI50 (UACC-62 (Melanoma)) of 1.48 µM, a GI50 (SF-539 (CNS)) of 1.33 µM and a GI50 (NCI-60 cancer cell lines) of 1.1 µM.

With `Cn1nnc2c(C(N)=O)ncn2c1=O` [Temadar] the “Plasma Conc” value ([1]; Temador 125 mg/kg PO + LMP400 10 mg/kg IV, 0.25 h) was 311.591 ± 40.73 µM, the “Brain Conc” value [1, 2] was 102.567 ± 16.241 µM and the “Brain/Plasma Conc Ratio” value [1, 2] was 0.50. The “Brain/Plasma Conc Ratio” value [1, 3] was 0.56, the “Plasma Conc” value [1, 3] was 80.639 ± 5.808 µM and the “Brain Conc” value [1, 4] was 4.739 ± 0.585 µM. For the same compound, the “Plasma Conc” value [1, 4] was 10.345 ± 0.724 µM, the “Brain Conc” value [1, 5] was 1.236 ± 0.654 µM and the “Brain/Plasma Conc Ratio” value [1, 5] was 0.38. For the same compound, the “Plasma Conc” value [1, 5] was 3.295 ± 1.528 µM, the “Brain Conc” value [1, 6] was 0.122 ± 0.004 µM and the “Brain/Plasma Conc Ratio” value [1, 6] was 0.01. The “Plasma Conc” value [1, 6] was 10.009 ± 5.943 µM, the “Brain Conc” value [1, 7] was 123.222 ± 49.748 µM and the “Brain/Plasma Conc Ratio” value [1, 7] was 0.33. For the same compound, the “Plasma Conc” value [1, 7] was 376.314 ± 182.744 µM, the “Brain Conc” value [1, 8] was 83.539 ± 43.505 µM and the “Brain/Plasma Conc Ratio” value [1, 8] was 0.23. The “Plasma Conc” value [1, 8] was 370.863 ± 119.965 µM, the “Brain/Plasma Conc Ratio” value [1, 9] was 0.46 and the “Plasma Conc” value [1, 9] was 357.779 ± 86.447 µM. For the same compound, the “Brain Conc” value [1, 10] was 96.544 ± 15.254 µM, the “Brain/Plasma Conc Ratio” value [1, 10] was 0.15 and the “Brain Conc” value [1, 11] was 12.75 ± 2.849 µM. For the same compound, the “Brain/Plasma Conc Ratio” value [1, 11] was 0.47, the “Plasma Conc” value [1, 11] was 27.155 ± 4.732 µM and the “Brain Conc” value [1, 12] was 5.765 ± 3.855 µM. The “Brain/Plasma Conc Ratio” value [1, 12] was 0.57, the “Plasma Conc” value [1, 12] was 10.048 ± 6.715 µM and the “Brain Conc” value [1, 13] was 0.914 ± 0.532 µM. The “Brain/Plasma Conc Ratio” value [1, 13] was 0.60, the concentration at 0.25 h ([1]; mouse, brain, oral, Brain Conc, Temador 125 mg/kg PO + LMP400 10 mg/kg IV, 0.25 h) was 86.6 ± 10.4 µM and the concentration at 0.5 h ([1]; mouse, brain, oral, Brain Conc, Temador 125 mg/kg PO + LMP400 10 mg/kg IV, 0.5 h) was 47.4 ± 24.5 µM. For the same compound, the concentration at 1 h ([1]; mouse, brain, oral, Brain Conc, Temador 125 mg/kg PO + LMP744 20 mg/kg IV, 1 h) was 154 ± 38.8 µM, the concentration at 0.5 h ([1]; mouse, plasma, oral, Plasma Conc, Temador 125 mg/kg PO + LMP400 10 mg/kg IV, 0.5 h) was 389 ± 66 µM and the concentration at 1 h ([1]; mouse, plasma, oral, Plasma Conc, Temador 125 mg/kg PO + LMP400 10 mg/kg IV, 1 h) was 205 ± 27.3 µM. The concentration at 2 h ([1]; mouse, plasma, oral, Plasma Conc, Temador 125 mg/kg PO + LMP744 20 mg/kg IV, 2 h) was 552 ± 309 µM and the concentration at 24 h ([1]; mouse, plasma, oral, Plasma Conc, Temador 125 mg/kg PO + LMP744 20 mg/kg IV, 24 h) was 1.58 ± 0.509 µM.

For `COc1cc2nc(N3CCN(C(=O)c4ccco4)CC3)nc(N)c2cc1OC` [Prazosin], the “Efflux Ratio” value (Caco-2 cells; Caco-2) was 3.39, the “Recovery (%)AP-BL” value (Caco-2 cells; Caco-2) was 79.64% and the “Recovery (%)BL-AP” value (Caco-2 cells; Caco-2) was 94.99%. The “Papp (A→B)” value (Caco-2 cells; Caco-2, 5 μM, 2 h) was 9.28 10^−6, cm/s and the “Papp (B→A)” value (Caco-2 cells; Caco-2, 5 μM, 2 h) was 31.47 10^−6, cm/s.

— patent US20240287089A1, “Preparation and Uses of 7-Azaindenoisoquinolines” (Purdue Research Foundation, priority 0001, published 2024)
